Values after ≈ are worked out from the molar mass of the structure shown.
Legend:
Assay type in all cases: cell-based
[1] = tested on: Staphylococcus aureus ATCC 6538P; test: in vitro antibacterial MIC, agar dilution (BHI agar, Steers replicator); settings: organism code AA; 35-37° C., 20 to 24 hours; unit assumed
Method: (§1) Representative compounds of the present invention were assayed in vitro for antibacterial activity as follows: Twelve petri dishes containing successive aqueous dilutions of the test compound mixed with 10 mL of sterilized Brain Heart Infusion (BHI) agar (Difco 0418-01-5) were prepared. Each plate was inoculated with 1:100 (or 1:10 for slow-growing strains, such as Micrococcus and Streptococcus) dilutions of up to 32 different microorganisms, using a Steers replicator block. […] In addition, a control plate, using BHI agar containing no test compound, was prepared and incubated at the beginning and end of each test.
(§2) An additional plate containing a compound having known susceptibility patterns for the organisms being tested and belonging to the same antibiotic class as the test compound was also prepared and incubated as a further control, as well as to provide test-to-test comparability.
(§3) After incubation, each plate was visually inspected. The minimum inhibitory concentration (MIC) was defined as the lowest concentration of drug yielding no growth, a slight haze, or sparsely isolated colonies on the inoculum spot as compared to the growth control.

[2] = tested on: Enterococcus faecium ATCC 8Q43; test: in vitro antibacterial MIC, agar dilution; settings: organism code II; 35-37° C., 20 to 24 hours; unit assumed
Method: as §1, §2, §3

Escherichia coli DC-2 = test: in vitro antibacterial MIC, agar dilution; settings: organism code SS; 35-37° C., 20 to 24 hours; unit assumed
Method: as §1, §2, §3

Escherichia coli JUHL = test: in vitro antibacterial MIC, agar dilution; settings: organism code QQ; 35-37° C., 20 to 24 hours; unit assumed
Method: as §1, §2, §3

Escherichia coli SS = test: in vitro antibacterial MIC, agar dilution; settings: organism code RR; 35-37° C., 20 to 24 hours; unit assumed
Method: as §1, §2, §3

[3] = tested on: Haemophilis Influenzae DILL AMP R; test: in vitro antibacterial MIC, agar dilution; settings: organism code WW; 35-37° C., 20 to 24 hours; unit assumed
Method: as §1, §2, §3

[4] = tested on: Micrococcus luteus ATCC 4698; test: in vitro antibacterial MIC, agar dilution; settings: organism code PP; 35-37° C., 20 to 24 hours; unit assumed
Method: as §1, §2, §3

[5] = tested on: Micrococcus luteus ATCC 9341; test: in vitro antibacterial MIC, agar dilution; settings: organism code OO; 35-37° C., 20 to 24 hours; unit assumed
Method: as §1, §2, §3

[6] = tested on: Mycobacterium smegmatis ATCC 114; test: in vitro antibacterial MIC, agar dilution; settings: organism code UU; 35-37° C., 20 to 24 hours; unit assumed
Method: as §1, §2, §3

[7] = tested on: Nocardia Asteroides ATCC9970; test: in vitro antibacterial MIC, agar dilution; settings: organism code VV; 35-37° C., 20 to 24 hours; unit assumed
Method: as §1, §2, §3

[8] = tested on: Staphylococcus aureus 1775; test: in vitro antibacterial MIC, agar dilution; settings: organism code GG; 35-37° C., 20 to 24 hours; unit assumed
Method: as §1, §2, §3

[9] = tested on: Staphylococcus aureus A-5278; test: in vitro antibacterial MIC, agar dilution; settings: organism code CC; 35-37° C., 20 to 24 hours; unit assumed
Method: as §1, §2, §3

[10] = tested on: Staphylococcus aureus A5177; test: in vitro antibacterial MIC, agar dilution; settings: organism code BB; 35-37° C., 20 to 24 hours; unit assumed
Method: as §1, §2, §3

[11] = tested on: Staphylococcus aureus CMX 553; test: in vitro antibacterial MIC, agar dilution; settings: organism code FF; 35-37° C., 20 to 24 hours; unit assumed
Method: as §1, §2, §3

[12] = tested on: Staphylococcus aureus CMX 642A; test: in vitro antibacterial MIC, agar dilution; settings: organism code DD; 35-37° C., 20 to 24 hours; unit assumed
Method: as §1, §2, §3

[13] = tested on: Staphylococcus aureus NCTC10649M; test: in vitro antibacterial MIC, agar dilution; settings: organism code EE; 35-37° C., 20 to 24 hours; unit assumed
Method: as §1, §2, §3

[14] = tested on: Staphylococcus epidermidis 3519; test: in vitro antibacterial MIC, agar dilution; settings: organism code HH; 35-37° C., 20 to 24 hours; unit assumed
Method: as §1, §2, §3

[15] = tested on: Streptococcus Pheumoniae 5649; test: in vitro antibacterial MIC, agar dilution; settings: organism code ZZA; 35-37° C., 20 to 24 hours; unit assumed
Method: as §1, §2, §3

[16] = tested on: Streptococcus Pheumoniae 5979; test: in vitro antibacterial MIC, agar dilution; settings: organism code ZZ; 35-37° C., 20 to 24 hours; unit assumed
Method: as §1, §2, §3

[17] = tested on: Streptococcus Pheumoniae ATCC6303; test: in vitro antibacterial MIC, agar dilution; settings: organism code XX; 35-37° C., 20 to 24 hours; unit assumed
Method: as §1, §2, §3

[18] = tested on: Streptococcus Pheumoniae GYR 1171; test: in vitro antibacterial MIC, agar dilution; settings: organism code YY; 35-37° C., 20 to 24 hours; unit assumed
Method: as §1, §2, §3

[19] = tested on: Streptococcus agalactiae CMX 508; test: in vitro antibacterial MIC, agar dilution; settings: organism code KK; 35-37° C., 20 to 24 hours; unit assumed
Method: as §1, §2, §3

[20] = tested on: Streptococcus bovis A-5169; test: in vitro antibacterial MIC, agar dilution; settings: organism code JJ; 35-37° C., 20 to 24 hours; unit assumed
Method: as §1, §2, §3

[21] = tested on: Streptococcus pyogenes 930; test: in vitro antibacterial MIC, agar dilution; settings: organism code MM; 35-37° C., 20 to 24 hours; unit assumed
Method: as §1, §2, §3

[22] = tested on: Streptococcus pyogenes EES61; test: in vitro antibacterial MIC, agar dilution; settings: organism code LL; 35-37° C., 20 to 24 hours; unit assumed
Method: as §1, §2, §3

[23] = tested on: Streptococcus pyogenes PIU 2548; test: in vitro antibacterial MIC, agar dilution; settings: organism code NN; 35-37° C., 20 to 24 hours; unit assumed
Method: as §1, §2, §3

Candida albicans CCH 442 = test: in vitro MIC, agar dilution; settings: organism code TT; 35-37° C., 20 to 24 hours; unit assumed
Method: as §1, §2, §3

| SMILES | MIC [1] [µg/mL] | MIC [2] [µg/mL] | MIC (Escherichia coli DC-2) [µg/mL] | MIC (Escherichia coli JUHL) [µg/mL] | MIC (Escherichia coli SS) [µg/mL] | MIC [3] [µg/mL] | MIC [4] [µg/mL] | MIC [5] [µg/mL] | MIC [6] [µg/mL] | MIC [7] [µg/mL] | MIC [8] [µg/mL] | MIC [9] [µg/mL] | MIC [10] [µg/mL] | MIC [11] [µg/mL] | MIC [12] [µg/mL] | MIC [13] [µg/mL] | MIC [14] [µg/mL] | MIC [15] [µg/mL] | MIC [16] [µg/mL] | MIC [17] [µg/mL] | also measured |
| --- | --- | --- | --- | --- | --- | --- | --- | --- | --- | --- | --- | --- | --- | --- | --- | --- | --- | --- | --- | --- | --- |
| CC[C@H]1OC(=O)[C@H](C)C(=O)[C@H](C)[C@@H](O[C@@H]2O[C@H](C)C[C@H](N(C)C)[C@H]2O)[C@@]2(C)C[C@@H](C)C(=O)[C@H](C)[C@H]3N(CCNC(=O)c4ccccc4C=CCO2)C(=O)O[C@]13C [Example 21] | 1.56 (≈ 1.99 µM) | 0.2 (≈ 0.255 µM) | > 100 | > 100 | 1.56 (≈ 1.99 µM) | 64 (≈ 81.6 µM) | 0.39 (≈ 0.497 µM) | 0.2 (≈ 0.255 µM) | 6.2 (≈ 7.91 µM) | 0.39 (≈ 0.497 µM) | > 100 | > 100 | 1.56 (≈ 1.99 µM) | 3.1 (≈ 3.95 µM) | 3.1 (≈ 3.95 µM) | 3.1 (≈ 3.95 µM) | 1.56 (≈ 1.99 µM) | 2 (≈ 2.55 µM) | > 128 | 0.25 (≈ 0.319 µM) | MIC [18]: 0.25 µg/mL (≈ 0.319 µM); MIC [19]: 0.1 µg/mL (≈ 0.128 µM); MIC [20]: 0.1 µg/mL (≈ 0.128 µM); MIC [21]: > 100 µg/mL; MIC [22]: 0.1 µg/mL (≈ 0.128 µM); MIC [23]: 0.78 µg/mL (≈ 0.995 µM); MIC (Candida albicans CCH 442): > 100 µg/mL |
| CC[C@H]1OC(=O)[C@H](C)[C@@H](O[C@H]2C[C@@](C)(OC)[C@@H](O)[C@H](C)O2)[C@H](C)[C@@H](O[C@@H]2O[C@H](C)C[C@H](N(C)C)[C@H]2O)[C@@]2(C)C[C@@H](C)C(=O)[C@H](C)[C@H]3N(CC(O)CCCCO2)C(=O)O[C@]13C (stereo partly drawn) [Example 22] | 1.56 (≈ 1.82 µM) | 0.2 (≈ 0.233 µM) | > 100 | 100 (≈ 117 µM) | 0.78 (≈ 0.91 µM) | 4 (≈ 4.67 µM) | 0.39 (≈ 0.455 µM) | 0.1 (≈ 0.117 µM) | 0.78 (≈ 0.91 µM) | 0.1 (≈ 0.117 µM) | > 100 | > 100 | 12.5 (≈ 14.6 µM) | 1.56 (≈ 1.82 µM) | 1.56 (≈ 1.82 µM) | 1.56 (≈ 1.82 µM) | 1.56 (≈ 1.82 µM) | 16 (≈ 18.7 µM) | > 128 | 0.06 (≈ 0.07 µM) | MIC [18]: 0.06 µg/mL (≈ 0.07 µM); MIC [19]: 0.1 µg/mL (≈ 0.117 µM); MIC [20]: 0.05 µg/mL (≈ 0.0583 µM); MIC [21]: > 100 µg/mL; MIC [22]: 0.1 µg/mL (≈ 0.117 µM); MIC [23]: 12.5 µg/mL (≈ 14.6 µM); MIC (Candida albicans CCH 442): > 100 µg/mL |

From US6046171A, “6,11-bridged erythromycin derivatives” (priority 1998, dated 2000)
